The target in data set [1] is T1, OATP1B3 (Homo sapiens, UniProt Q9NPD5).
T1 sequence (Q9NPD5 1-702): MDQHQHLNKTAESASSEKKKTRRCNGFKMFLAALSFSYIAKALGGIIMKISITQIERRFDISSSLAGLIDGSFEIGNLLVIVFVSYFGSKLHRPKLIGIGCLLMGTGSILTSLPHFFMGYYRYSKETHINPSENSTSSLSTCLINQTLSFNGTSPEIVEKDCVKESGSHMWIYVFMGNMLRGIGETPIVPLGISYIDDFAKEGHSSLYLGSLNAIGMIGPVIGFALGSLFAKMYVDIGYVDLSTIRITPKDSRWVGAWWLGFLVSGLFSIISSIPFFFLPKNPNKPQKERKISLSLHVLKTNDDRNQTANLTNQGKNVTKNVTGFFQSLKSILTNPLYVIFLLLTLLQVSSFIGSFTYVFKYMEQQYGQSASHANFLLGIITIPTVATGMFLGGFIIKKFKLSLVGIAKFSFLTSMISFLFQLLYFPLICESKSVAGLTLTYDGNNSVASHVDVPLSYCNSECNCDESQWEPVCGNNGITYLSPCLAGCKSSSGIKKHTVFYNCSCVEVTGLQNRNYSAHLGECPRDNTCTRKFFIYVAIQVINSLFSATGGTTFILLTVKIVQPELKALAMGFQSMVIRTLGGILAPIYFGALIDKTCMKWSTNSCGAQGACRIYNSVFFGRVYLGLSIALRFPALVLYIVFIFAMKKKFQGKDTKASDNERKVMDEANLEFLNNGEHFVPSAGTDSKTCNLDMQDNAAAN
The data set is described as follows: fluorimetric uptake of fluorescein-methotrexate. Conditions: racemic compound. It is filed as cell-based.

Data set [2] concerns the target T2, OATP1B1 (Homo sapiens, UniProt Q9Y6L6).
T2 sequence (Q9Y6L6 1-691): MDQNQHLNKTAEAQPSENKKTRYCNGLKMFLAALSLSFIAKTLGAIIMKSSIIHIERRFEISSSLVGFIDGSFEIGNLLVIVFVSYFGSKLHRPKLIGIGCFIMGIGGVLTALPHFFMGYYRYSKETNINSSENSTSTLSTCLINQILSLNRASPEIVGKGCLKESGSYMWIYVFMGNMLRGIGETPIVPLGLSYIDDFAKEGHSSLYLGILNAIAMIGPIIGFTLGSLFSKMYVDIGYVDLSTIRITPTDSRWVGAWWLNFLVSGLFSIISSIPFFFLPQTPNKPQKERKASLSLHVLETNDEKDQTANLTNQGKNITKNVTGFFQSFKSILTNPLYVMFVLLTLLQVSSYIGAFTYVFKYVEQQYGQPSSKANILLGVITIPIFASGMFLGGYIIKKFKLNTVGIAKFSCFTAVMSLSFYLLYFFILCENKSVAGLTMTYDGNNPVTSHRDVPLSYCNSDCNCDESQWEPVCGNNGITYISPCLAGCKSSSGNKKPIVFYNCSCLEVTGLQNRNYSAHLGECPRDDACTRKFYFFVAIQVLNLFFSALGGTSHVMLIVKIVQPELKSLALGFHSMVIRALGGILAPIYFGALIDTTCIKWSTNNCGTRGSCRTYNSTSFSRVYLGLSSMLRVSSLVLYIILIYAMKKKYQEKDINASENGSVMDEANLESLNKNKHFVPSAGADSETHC
Description: fluorimetric uptake of fluorescein-methotrexate. Type of data set: cell-based. Conditions: racemic compound.

A further data set addresses BSEP (Homo sapiens, UniProt O95342). Description: uptake of 3H-taurocholic acid in membrane vesicles, scintillation counting. It is filed as biochemical. Conditions: read-out: % of control activity at 10 μM.
For a further data set, the target named is MRP2 (Homo sapiens, UniProt Q92887). The data set is described as follows: fluorimetric uptake of […]. Type of data set: cell-based.
Chain of MRP2 (Q92887 whole entry): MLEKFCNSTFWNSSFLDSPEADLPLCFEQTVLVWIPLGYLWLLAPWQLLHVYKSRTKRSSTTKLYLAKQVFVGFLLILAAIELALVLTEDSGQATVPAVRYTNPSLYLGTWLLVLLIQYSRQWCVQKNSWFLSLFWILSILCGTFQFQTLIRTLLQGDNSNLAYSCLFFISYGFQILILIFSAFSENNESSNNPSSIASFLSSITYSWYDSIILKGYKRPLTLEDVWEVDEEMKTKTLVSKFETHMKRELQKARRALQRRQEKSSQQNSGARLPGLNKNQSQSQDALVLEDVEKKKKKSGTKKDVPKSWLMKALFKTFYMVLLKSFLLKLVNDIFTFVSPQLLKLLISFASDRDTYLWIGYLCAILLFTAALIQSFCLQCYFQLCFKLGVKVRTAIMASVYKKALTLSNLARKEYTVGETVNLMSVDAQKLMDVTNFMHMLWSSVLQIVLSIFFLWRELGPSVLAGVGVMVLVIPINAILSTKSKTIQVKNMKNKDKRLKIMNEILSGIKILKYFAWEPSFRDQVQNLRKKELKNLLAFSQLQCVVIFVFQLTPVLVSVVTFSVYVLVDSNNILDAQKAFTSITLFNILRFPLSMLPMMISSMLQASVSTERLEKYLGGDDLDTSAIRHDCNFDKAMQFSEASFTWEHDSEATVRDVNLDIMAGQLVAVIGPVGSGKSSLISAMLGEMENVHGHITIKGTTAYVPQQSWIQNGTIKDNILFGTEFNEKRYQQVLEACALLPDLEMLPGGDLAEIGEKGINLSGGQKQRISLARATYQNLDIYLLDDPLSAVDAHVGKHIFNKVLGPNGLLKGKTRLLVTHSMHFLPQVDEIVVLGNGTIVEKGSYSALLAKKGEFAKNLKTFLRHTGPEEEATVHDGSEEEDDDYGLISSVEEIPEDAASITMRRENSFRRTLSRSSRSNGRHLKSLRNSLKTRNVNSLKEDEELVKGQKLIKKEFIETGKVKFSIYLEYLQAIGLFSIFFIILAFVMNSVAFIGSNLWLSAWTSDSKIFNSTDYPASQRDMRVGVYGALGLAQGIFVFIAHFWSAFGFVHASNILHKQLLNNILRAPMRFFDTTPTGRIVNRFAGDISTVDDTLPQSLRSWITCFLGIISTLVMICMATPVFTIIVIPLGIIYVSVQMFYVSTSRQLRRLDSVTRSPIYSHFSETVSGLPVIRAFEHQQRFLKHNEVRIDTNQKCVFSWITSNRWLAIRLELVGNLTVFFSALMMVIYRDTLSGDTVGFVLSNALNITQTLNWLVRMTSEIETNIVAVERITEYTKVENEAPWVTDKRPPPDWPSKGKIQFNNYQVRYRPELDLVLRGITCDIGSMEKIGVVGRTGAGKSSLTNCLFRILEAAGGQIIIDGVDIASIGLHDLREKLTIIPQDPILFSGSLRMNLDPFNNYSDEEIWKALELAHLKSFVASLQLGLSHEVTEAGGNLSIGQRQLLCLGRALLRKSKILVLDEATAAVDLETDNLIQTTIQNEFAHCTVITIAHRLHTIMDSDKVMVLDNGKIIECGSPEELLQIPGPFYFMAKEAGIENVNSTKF
The target in another data set is T3, hPXR (Homo sapiens, UniProt O75469).
T3 sequence (O75469 1-434): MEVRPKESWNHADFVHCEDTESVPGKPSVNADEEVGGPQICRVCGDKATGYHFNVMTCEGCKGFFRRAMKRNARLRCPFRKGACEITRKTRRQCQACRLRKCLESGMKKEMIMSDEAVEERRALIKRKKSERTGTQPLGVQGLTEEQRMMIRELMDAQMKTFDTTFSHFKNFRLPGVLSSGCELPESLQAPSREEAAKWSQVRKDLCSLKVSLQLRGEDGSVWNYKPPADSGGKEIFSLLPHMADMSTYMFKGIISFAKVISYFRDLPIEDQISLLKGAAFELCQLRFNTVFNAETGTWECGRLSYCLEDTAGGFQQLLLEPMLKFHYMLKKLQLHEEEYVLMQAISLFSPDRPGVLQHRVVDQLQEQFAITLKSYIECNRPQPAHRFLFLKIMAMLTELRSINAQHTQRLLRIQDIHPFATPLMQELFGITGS
The data set is described as follows: luciferase reporter gene assay. Type of data set: cell-based.

In data set [3] the target is T2, OATP1B1. The data set is described as follows: fluorimetric uptake of fluorescein-methotrexate. Type of data set: cell-based.
Data set [4] deals with T1, OATP1B3. Description: fluorimetric uptake of fluorescein-methotrexate. Type of data set: cell-based.

Chain of BSEP (O95342 whole entry): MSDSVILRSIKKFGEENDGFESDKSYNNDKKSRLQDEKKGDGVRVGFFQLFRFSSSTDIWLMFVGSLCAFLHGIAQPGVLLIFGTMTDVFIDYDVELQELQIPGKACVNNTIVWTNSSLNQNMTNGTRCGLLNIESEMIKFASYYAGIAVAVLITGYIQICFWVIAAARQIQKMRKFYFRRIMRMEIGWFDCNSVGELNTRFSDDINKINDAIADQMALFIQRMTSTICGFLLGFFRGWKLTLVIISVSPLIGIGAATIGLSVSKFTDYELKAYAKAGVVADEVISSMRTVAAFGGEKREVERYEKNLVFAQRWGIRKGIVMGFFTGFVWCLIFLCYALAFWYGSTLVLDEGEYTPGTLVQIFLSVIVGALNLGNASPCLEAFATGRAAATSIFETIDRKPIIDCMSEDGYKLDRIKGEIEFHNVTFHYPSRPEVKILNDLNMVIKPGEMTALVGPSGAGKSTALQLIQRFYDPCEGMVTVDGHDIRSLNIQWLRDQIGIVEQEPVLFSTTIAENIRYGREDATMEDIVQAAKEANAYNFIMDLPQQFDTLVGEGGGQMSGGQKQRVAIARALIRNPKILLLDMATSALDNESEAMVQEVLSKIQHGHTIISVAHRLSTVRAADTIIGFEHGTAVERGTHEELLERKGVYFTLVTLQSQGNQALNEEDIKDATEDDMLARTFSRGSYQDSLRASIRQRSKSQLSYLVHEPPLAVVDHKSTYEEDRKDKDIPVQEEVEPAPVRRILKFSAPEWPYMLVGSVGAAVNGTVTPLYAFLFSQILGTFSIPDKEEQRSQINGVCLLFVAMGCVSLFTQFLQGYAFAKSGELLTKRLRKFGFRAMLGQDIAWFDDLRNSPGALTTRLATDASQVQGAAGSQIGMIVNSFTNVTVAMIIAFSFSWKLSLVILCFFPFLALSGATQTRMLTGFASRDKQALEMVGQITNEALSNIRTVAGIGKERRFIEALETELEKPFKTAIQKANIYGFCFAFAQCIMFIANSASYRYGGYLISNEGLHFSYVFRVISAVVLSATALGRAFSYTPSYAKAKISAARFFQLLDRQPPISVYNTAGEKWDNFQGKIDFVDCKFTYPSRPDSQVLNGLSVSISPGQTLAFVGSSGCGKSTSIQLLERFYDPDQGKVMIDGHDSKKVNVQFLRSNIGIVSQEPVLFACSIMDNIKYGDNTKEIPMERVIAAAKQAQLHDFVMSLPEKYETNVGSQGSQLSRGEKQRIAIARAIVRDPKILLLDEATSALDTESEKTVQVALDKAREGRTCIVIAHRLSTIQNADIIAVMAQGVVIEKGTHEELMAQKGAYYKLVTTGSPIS

For the compound `C#CCC(O)(c1ccncc1)c1cc2ccccc2n1S(=O)(=O)c1ccccc1` (racemic) [FKK6, 1-(1-(phenylsulfonyl)-1H-indol-2-yl)-(1-pyridin-4-yl)-but-3-yn-1-ol], the entries for the “% of control activity at 10 μM” value at OATP1B3 [1] and at OATP1B1 [2] were 36% and 34%, respectively. For the same compound, the remaining activity at 10 µM at BSEP stood at 44%. `CN(C)C(=O)CCSC(SCCC(=O)O)c1cccc(/C=C/c2ccc3ccc(Cl)cc3n2)c1` (centres unmarked) [MK571] displayed an IC50 against MRP2 of 22 µM. In the case of `C#CCC(O)(c1cc[n+]([O-])cc1)c1cc2ccccc2n1S(=O)(=O)c1ccccc1` (centres unmarked) [compound 6, 4-(1-hydroxy-1-(1-(phenylsulfonyl)-1H-indol-2-yl)but-3-yn-1-yl)pyridine 1-oxide], it took 7.8 µM to reach a half-maximal effect on hPXR (EC50).

Consider `C#CCC(O)(c1ccncc1)c1cc2ccccc2n1S(=O)(=O)c1ccc(O)cc1` (centres unmarked) [compound 9, 4-((2-(1-hydroxy-1-(pyridin-4-yl)but-3-yn-1-yl)-1H-indol-1-yl)sulfonyl)phenol], for which the EC50 on hPXR is 5.1 µM.

`CO[C@H]1/C=C/O[C@@]2(C)Oc3c(C)c(O)c4c(O)c(c(/C=N/N5CCN(C)CC5)c(O)c4c3C2=O)NC(=O)/C(C)=C\C=C\[C@H](C)[C@H](O)[C@@H](C)[C@@H](O)[C@@H](C)[C@H](OC(C)=O)[C@@H]1C` [rifampicin]: the IC50 worked out at 3.4 µM at OATP1B1 [3] and 3.9 µM against OATP1B3 [4].

Values taken from article doi:10.1101/2023.10.21.563410v1 (biorxiv, 2023).
